Laboratory results reported in patent publication US6737383B1, “Herbicidal oxadiazolidines” (priority 1999, dated 2004).

Assays:
crabgrass = test: Test B pre/postemergence crabgrass; type: in vivo, Digitaria sanguinalis
Summary of the method: (§1)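 Test chemicals in a non-phytotoxic solvent mixture with surfactant were sprayed preemergence onto planted seeds and postemergence onto plants 2 to 18 cm tall (1- to 4-leaf stage). After twelve to sixteen days in a greenhouse, injury was visually rated against untreated controls from 0 (no effect) to 10 (complete control).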

soybean = test: Test B pre/postemergence soybean; type: in vivo, Glycine max
Summary of the method: as §1

wheat = test: Test B pre/postemergence wheat; type: in vivo, Triticum aestivum
Summary of the method: as §1

wild oat [1] = test: Test B pre/postemergence wild oat; type: in vivo, Avena fatua
Summary of the method: as §1

smallflower flatsedge = test: Test B flood test smallflower flatsedge; type: in vivo, Cyperus difformis
Summary of the method: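 Plants were grown to the 2-leaf stage before treatment with test chemical, then held in a greenhouse for twelve to sixteen days. Injury was visually rated against untreated controls on a 0–10 scale, where 0 is no effect and 10 is complete control.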

winter wheat [2] = test: Test E winter wheat; type: in vivo, Triticum aestivum; settings: Postemergence, 0 to 100 scale
Summary of the method: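 Plants were grown under normal greenhouse practice; for postemergence, in sandy loam soil mixed 60:40 with potting mix, treated at the 1- to 4-leaf stage. The compound was in a non-phytotoxic solvent carrying a surfactant. After roughly 21 to 28 days plants were scored visually against untreated plants.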

blackgrass = test: Test E blackgrass; type: in vivo, Alopecurus myosuroides; settings: Preemergence
green foxtail = test: Test E green foxtail; type: in vivo, Setaria viridis; settings: Preemergence
Italian ryegrass = test: Test E Italian ryegrass; type: in vivo, Lolium multiflorum; settings: Preemergence
winter wheat [3] = test: Test E winter wheat; type: in vivo, Triticum aestivum; settings: Preemergence
wild oat [4] = test: Test E wild oat; type: in vivo, Avena fatua; settings: Preemergence
winter barley = test: Test E winter barley; type: in vivo, Hordeum vulgare; settings: Preemergence
[5] = Postemergence, Rate 125 g/ha, scale 0 to 10, 0 is no effect, 10 is complete control
[6] = Preemergence, Rate 62 g/ha, scale 0 to 10 (0 no effect, 10 complete control)
[7] = Preemergence, Rate 250 g/ha, scale of 0 to 10 where 0 is no effect and 10 is complete control
[8] = Preemergence, Rate 500 g/ha, scale of 0 to 10 where 0 is no effect and 10 is complete control
[9] = Rate 62 g/ha, Postemergence, scale of 0 to 10 where 0 is no effect and 10 is complete control
[10] = Rate 500 g/ha, Postemergence, scale 0 to 10, 0 no effect, 10 complete control
[11] = Rate 125 g/ha, Pre-emergence, flood test species, scale 0 to 10 where 0 is no effect and 10 is complete control
[12] = Rate 250 g/ha, Pre-emergence, flood-test species, scale 0 to 10, 0 is no effect, 10 is complete control
[13] = Rate 500 g/ha, Pre-emergence, flood test species, scale 0 to 10 (0 no effect, 10 complete control)
[14] = Rate 500 g/ha, 0 is no effect, 100 is complete control
[15] = Rate 125 g/ha, 0 to 100 scale (0 no effect, 100 complete control)
[16] = Rate 500 g/ha, 0 to 100 scale (0 no effect, 100 complete control)
[17] = Preemergence, Rate 62 g/ha, scale of 0 to 10 where 0 is no effect and 10 is complete control
[18] = Preemergence, Rate 125 g/ha, 0 is no effect, 10 is complete control
[19] = Preemergence, Rate 250 g/ha, scale 0 to 10, 0 is no effect, 10 is complete control
[20] = Rate 125 g/ha, Postemergence, scale 0 to 10
[21] = Rate 500 g/ha, Postemergence, scale 0 to 10
[22] = Rate 500 g/ha, 0 to 100 scale where 0 is no effect and 100 is complete control
[23] = Rate 1000 g/ha, 0 to 100 scale where 0 is no effect and 100 is complete control

CCC(CC)n1c(=O)on(C(=O)N(c2ccccc2)C(C)C)c1=O [Compound 354]
Plant response rating, Crabgrass (crabgrass; [5]): 2 | Plant response rating, Crabgrass (crabgrass; [6]): 9 | Crabgrass plant response rating (0 to 10 scale) (crabgrass; Preemergence, Rate 125 g/ha): 9 | Crabgrass plant response rating (crabgrass; [7]): 9 | Crabgrass plant response rating (crabgrass; [8]): 10 | Crabgrass plant response rating (crabgrass; [9]): 0 | Plant response rating, Crabgrass (crabgrass; [10]): 3 | Plant response rating, Soybean (soybean; [5]): 5 | Plant response rating, Soybean (soybean; [6]): 0 | Soybean plant response rating (0 to 10 scale) (soybean; Preemergence, Rate 125 g/ha): 0 | Soybean plant response rating (soybean; [7]): 0 | Soybean plant response rating (soybean; [8]): 1 | Soybean plant response rating (soybean; [9]): 3 | Plant response rating, Soybean (soybean; [10]): 7 | Plant response rating, Wheat (wheat; [5]): 0 | Plant response rating, Wheat (wheat; [6]): 0 | Wheat plant response rating (0 to 10 scale) (wheat; Preemergence, Rate 125 g/ha): 0 | Wheat plant response rating (wheat; [7]): 0 | Wheat plant response rating (wheat; [8]): 2 | Wheat plant response rating (wheat; [9]): 0 | Plant response rating, Wheat (wheat; [10]): 0 | Plant response rating, Wild oats (wild oat [1]; [5]): 0 | Plant response rating, Wild oats (wild oat [1]; [6]): 0 | Wild oats plant response rating (0 to 10 scale) (wild oat [1]; Preemergence, Rate 125 g/ha): 4 | Wild oats plant response rating (wild oat [1]; [7]): 6 | Wild oats plant response rating (wild oat [1]; [8]): 8 | Wild oats plant response rating (wild oat [1]; [9]): 0 | Plant response rating, Wild oats (wild oat [1]; [10]): 3 | Plant response rating, S. Flatsedge (smallflower flatsedge; Postemergence (flood test), Rate 125 g/ha, scale 0 to 10, 0 is no effect, 10 is complete control): 8 | S. Flatsedge plant response rating (smallflower flatsedge; Rate 62 g/ha, Postemergence (flood test species), scale of 0 to 10 where 0 is no effect and 10 is complete control): 5 | Plant response rating, S. Flatsedge (0 to 10 scale, 0 is no effect, 10 is complete control) (smallflower flatsedge; Rate 62 g/ha, flood test species, Pre-emergence, visual evaluation after twelve to sixteen days): 0 | S. Flatsedge plant response rating (smallflower flatsedge; [11]): 0 | S. Flatsedge plant response rating (smallflower flatsedge; [12]): 0 | Plant response rating, S. Flatsedge (smallflower flatsedge; Rate 500 g/ha, listed under Postemergence (flood test species), scale 0 to 10, 0 no effect, 10 complete control): 9 | S. Flatsedge plant response rating (smallflower flatsedge; [13]): 0 | Plant response rating, Wheat (winter) (winter wheat [2]; Rate 125 g/ha, 0 is no effect, 100 is complete control): 30 | Plant response rating, Wheat (winter) (winter wheat [2]; Rate 250 g/ha, 0 is no effect, 100 is complete control): 40 | Plant response rating, Wheat (winter) (winter wheat [2]; [14]): 50 | Plant response rating, Blackgrass (blackgrass; [15]): 50 | Plant response rating, Blackgrass (blackgrass; Rate 250 g/ha, 0 to 100 scale): 55 | Plant response rating, Blackgrass (blackgrass; [16]): 30 | Plant response rating, Green foxtail (green foxtail; [15]): 85 | Plant response rating, Green foxtail (green foxtail; Rate 250 g/ha, 0 to 100 scale): 80 | Plant response rating, Green foxtail (green foxtail; [16]): 100 | Plant response rating, I. Ryegrass (Italian ryegrass; [15]): 50 | Plant response rating, I. Ryegrass (Italian ryegrass; Rate 250 g/ha, 0 to 100 scale): 60 | Plant response rating, I. Ryegrass (Italian ryegrass; [16]): 90 | Plant response rating, Wheat (winter) (winter wheat [3]; [15]): 30 | Plant response rating, Wheat (winter) (winter wheat [3]; Rate 250 g/ha, 0 to 100 scale): 50 | Plant response rating, Wheat (winter) (winter wheat [3]; [16]): 60 | Plant response rating, Wild oat (wild oat [4]; [15]): 0 | Plant response rating, Wild oat (wild oat [4]; Rate 250 g/ha, 0 to 100 scale): 30 | Plant response rating, Wild oat (wild oat [4]; [16]): 40 | Plant response rating, Barley (winter) (winter barley; [15]): 20 | Plant response rating, Barley (winter) (winter barley; Rate 250 g/ha, 0 to 100 scale, 0 no effect, 100 complete control): 30 | Plant response rating, Barley (winter) (winter barley; [16]): 40

CC(C)N(C(=O)n1oc(=O)n(Cc2ccco2)c1=O)c1ccc(F)cc1F [Compound 208]
Crabgrass plant response rating (crabgrass; [17]): 4 | Crabgrass plant response rating (0 to 10 scale) (crabgrass; [18]): 5 | Crabgrass plant response rating (crabgrass; [19]): 6 | Plant response rating, Crabgrass (crabgrass; [8]): 6 | Crabgrass plant response rating (crabgrass; [9]): 0 | Crabgrass plant response rating (crabgrass; [20]): 0 | Plant response rating (0 to 10; 0 is no effect, 10 is complete control), Crabgrass (crabgrass; Rate 250 g/ha, Postemergence): 0 | Crabgrass plant response rating (crabgrass; [21]): 3 | Soybean plant response rating (soybean; [17]): 0 | Soybean plant response rating (0 to 10 scale) (soybean; [18]): 0 | Soybean plant response rating (soybean; [19]): 0 | Plant response rating, Soybean (soybean; [8]): 0 | Soybean plant response rating (soybean; [9]): 1 | Soybean plant response rating (soybean; [20]): 1 | Plant response rating (0 to 10; 0 is no effect, 10 is complete control), Soybean (soybean; Rate 250 g/ha, Postemergence): 2 | Soybean plant response rating (soybean; [21]): 2 | Wheat plant response rating (wheat; [17]): 0 | Wheat plant response rating (wheat; [19]): 0 | Plant response rating, Wheat (wheat; [8]): 0 | Wheat plant response rating (wheat; [9]): 0 | Wheat plant response rating (wheat; [20]): 0 | Plant response rating (0 to 10; 0 is no effect, 10 is complete control), Wheat (wheat; Rate 250 g/ha, Postemergence): 0 | Wild oats plant response rating (wild oat [1]; [17]): 0 | Wild oats plant response rating (wild oat [1]; [19]): 0 | Plant response rating, Wild oats (wild oat [1]; [8]): 3 | Wild oats plant response rating (wild oat [1]; [9]): 0 | Wild oats plant response rating (wild oat [1]; [20]): 0 | Plant response rating (0 to 10; 0 is no effect, 10 is complete control), Wild oats (wild oat [1]; Rate 250 g/ha, Postemergence): 0 | S. Flatsedge plant response rating (smallflower flatsedge; Rate 62 g/ha, headed Pre-emergence (flood test species), scale 0 to 10 (0 no effect, 10 complete control)): 0 | S. Flatsedge plant response rating (smallflower flatsedge; [11]): 0 | S. Flatsedge plant response rating (smallflower flatsedge; [12]): 0 | S. Flatsedge plant response rating (smallflower flatsedge; [13]): 0 | Plant response rating, Wheat (winter) (winter wheat [2]; Rate 1000 g/ha, 0 is no effect and 100 is complete control): 60 | Plant response rating, Wheat (winter) (winter wheat [2]; [14]): 50 | Blackgrass plant response rating (0 to 100 scale) (blackgrass; Rate 250 g/ha): 40 | Plant response rating, Blackgrass (blackgrass; [22]): 85 | Plant response rating, Blackgrass (blackgrass; [23]): 85 | Green foxtail plant response rating (0 to 100 scale) (green foxtail; Rate 250 g/ha): 40 | Plant response rating, Green foxtail (green foxtail; [22]): 60 | Plant response rating, Green foxtail (green foxtail; [23]): 70 | I. Ryegrass plant response rating (0 to 100 scale) (Italian ryegrass; Rate 250 g/ha): 50 | Plant response rating, I. Ryegrass (Italian ryegrass; [22]): 60 | Plant response rating, I. Ryegrass (Italian ryegrass; [23]): 95 | Wheat (winter) plant response rating (0 to 100 scale) (winter wheat [3]; Rate 250 g/ha): 30 | Plant response rating, Wheat (winter) (winter wheat [3]; [22]): 30 | Plant response rating, Wheat (winter) (winter wheat [3]; [23]): 30 | Wild oat plant response rating (0 to 100 scale) (wild oat [4]; Rate 250 g/ha): 50 | Plant response rating, Wild oat (wild oat [4]; [22]): 60 | Plant response rating, Wild oat (wild oat [4]; [23]): 50 | Barley (winter) plant response rating (0 to 100 scale) (winter barley; Rate 250 g/ha): 30 | Plant response rating, Barley (winter) (winter barley; [22]): 40 | Plant response rating, Barley (winter) (winter barley; [23]): 50
